The target in one assay is B-Raf V600E (Homo sapiens (Human), UniProt P15056, V600E). Kind of assay: B-Raf V600E kinase biochemical activity assay (AlphaScreen, biotin-MEK1 substrate). The settings on record: 100 μM ATP. In short, it runs like this: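 B-Raf V600E (0.1 ng) phosphorylated 100 nM biotin-MEK1 with 100 μM ATP (final) in HEPES pH 7.0 with Mg2+/Mn2+ for 45 min at room temperature. Compounds were tested over an 8-point serial dilution. Phospho-MEK1/2 was detected by AlphaScreen after 3 h with beads, and IC50 came from signal versus concentration.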

Assay [1] deals with COLO205 colon adenocarcinoma cells (B-Raf V600E mutation). The experiment in a line: COLO205 cell growth inhibition (ATPlite). Type of assay: cell-based. The following applies: Homo sapiens, COLO 205, 72 h, 3 days. In short, it runs like this: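 Cells treated for 3 days at 37 °C, 5% CO2 with an 8-point 1:3 dilution series, top final concentration 10 μM, DMSO control. ATPlite luminescence used as a measure of cell number; IC50 from reading versus concentration.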

Assay [2] concerns IPC-298 human melanoma cell line that expresses activated NRAS. Kind of assay: IPC-298_P-ERK cell activation assay (phosphorylated ERK, AlphaScreen). Type of assay: cell-based. The settings on record: 1 h, IPC-298 cells, P-ERK activation, compound for one hour. As to the method: B9 is a squamous cell carcinoma cell line expressing activated HRAS that was isolated from a DMBA/TPA-induced mouse model of skin carcinogenesis (Stoler, et al. The Journal of Cell Biology, 1993, 122(5), 1103-17). IPC-298 is a human melanoma cell line that expresses activated NRAS (Aubert, et al. International Journal of Cancer, 1993, 54(5), 784-92). To determine whether compounds induce phosphorylated ERK and MEK, cells are plated in a 96-well dish and treated with an 8-point titration of compound for one hour at 37° C. The media is then removed and the cells are incubated with lysis buffer containing protease and phosphatase inhibitors. Phosphorylated ERK and MEK in the resulting lysates is detected using AlphaScreen™ technology. To detect phosphorylated ERK, cell lysates are incubated with streptavidin-coated donor beads, anti-mouse IgG acceptor beads, a biotinylated anti-ERK1/2 rabbit antibody, and a mouse antibody that recognizes ERK1/2 only when it is phosphorylated on Thr202 and Tyr204. The biotinylated ERK1/2 antibody will bind to both the streptavidin-coated donor beads and to ERK1/2 (regardless of its phosphorylation state), and the phospho-ERK1/2 antibody will bind to the acceptor beads and to ERK1/2 that is phosphorylated at Thr202/Tyr204. Excitation of the beads with laser light at 680 nm produces singlet oxygen, which is rapidly quenched unless the beads are in close proximity. When ERK is phosphorylated, both antibodies can bind the same protein, bringing the donor and acceptor beads into close proximity, producing a signal that can be measured at 580 nm. MEK phosphorylation is detected using a similar approach, only with antibodies directed against total MEK1/2 and MEK1/2 that is phosphorylated at Ser217 and Ser221.

25 molecules from patent US20230277534A1 (Plexxikon Inc., priority 2011, published 2023) can be followed below.

Sequence of B-Raf V600E (P15056 whole entry V600E): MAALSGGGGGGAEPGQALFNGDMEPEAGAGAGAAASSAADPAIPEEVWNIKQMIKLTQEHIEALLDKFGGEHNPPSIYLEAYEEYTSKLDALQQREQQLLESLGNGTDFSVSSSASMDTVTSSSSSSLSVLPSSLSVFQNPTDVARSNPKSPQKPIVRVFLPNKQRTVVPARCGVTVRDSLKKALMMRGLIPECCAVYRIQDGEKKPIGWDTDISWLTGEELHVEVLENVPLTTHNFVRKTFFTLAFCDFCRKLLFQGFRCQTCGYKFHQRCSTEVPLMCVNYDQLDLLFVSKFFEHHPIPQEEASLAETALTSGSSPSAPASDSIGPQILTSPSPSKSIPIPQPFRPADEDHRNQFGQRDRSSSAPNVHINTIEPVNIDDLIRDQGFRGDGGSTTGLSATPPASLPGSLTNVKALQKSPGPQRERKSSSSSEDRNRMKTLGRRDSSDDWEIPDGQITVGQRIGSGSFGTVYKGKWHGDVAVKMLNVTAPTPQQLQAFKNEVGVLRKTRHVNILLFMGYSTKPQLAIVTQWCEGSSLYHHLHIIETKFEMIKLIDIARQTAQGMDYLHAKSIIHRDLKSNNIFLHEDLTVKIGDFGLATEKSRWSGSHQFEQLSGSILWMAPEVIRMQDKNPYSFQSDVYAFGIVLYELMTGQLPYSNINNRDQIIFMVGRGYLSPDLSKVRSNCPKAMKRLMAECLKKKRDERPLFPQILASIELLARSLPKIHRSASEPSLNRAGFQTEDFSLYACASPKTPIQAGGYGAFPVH

As for `CCN(C)S(=O)(=O)Nc1ccc(F)c(C(=O)c2c[nH]c3ncc(Cl)cc23)c1F` [Compound P-0012, 5-chloro-3-[3-[[ethyl(methyl)sulfamoyl]amino]-2,6-difluoro-benzoyl]-1H-pyrrolo[2,3-b]pyridine], the IC50 is < 0.1 µM against B-Raf V600E and > 1 µM in assay [1]. Also, the EC50 in assay [2] is > 10 µM.
With `CCN(C)S(=O)(=O)Nc1ccc(F)c(C(=O)c2c[nH]c3ncc(-c4cnc(OC)nc4)cc23)c1F` [Compound P-0014], the IC50 in assay [1] was < 1 µM. For the same molecule, in assay [2], the EC50 is > 8 µM.
As to `CCN(C)S(=O)(=O)Nc1ccc(F)c(C(=O)c2c[nH]c3ncc(C#N)cc23)c1F` [Compound P-0017, 5-cyano-3-[3-[[ethyl(methyl)sulfamoyl]amino]-2,6-difluoro-benzoyl]-1H-pyrrolo[2,3-b]pyridine], the IC50 is < 0.1 µM at B-Raf V600E and > 1 µM in assay [1]. Further, the EC50 in assay [2] is > 10 µM.
The like results for `CCN(C)S(=O)(=O)Nc1cccc(C(=O)c2c[nH]c3ncc(Cl)cc23)c1F` [Compound P-0018, 5-chloro-3-[3-[[ethyl(methyl)sulfamoyl]amino]-2-fluoro-benzoyl]-1H-pyrrolo[2,3-b]pyridine] were, in that order, < 0.1 µM, > 1 µM and > 10 µM.
On to `CCN(C)S(=O)(=O)Nc1cccc(C(=O)c2c[nH]c3ncc(-c4ccc(Cl)cc4)cc23)c1F` [Compound P-0019], for which the IC50 in assay [1] was > 1 µM. Moreover, in assay [2], the EC50 was > 10 µM.
On to `CCN(C)S(=O)(=O)Nc1cccc(C(=O)c2c[nH]c3ncc(-c4cnc(OC)nc4)cc23)c1F` [Compound P-0020], for which the IC50 in assay [1] is < 1 µM. Moreover, the EC50 in assay [2] was > 10 µM.
Regarding `Cc1cnc2[nH]cc(C(=O)c3cccc(NS(=O)(=O)N4CCCC4)c3F)c2c1` [Compound P-0023, N-[2-fluoro-3-(5-methyl-1H-pyrrolo[2,3-b]pyridine-3-carbonyl)phenyl]pyrrolidine-1-sulfonamide], the IC50 on B-Raf V600E was < 0.1 µM; in assay [1], > 1 µM. For the same molecule, the EC50 in assay [2] was > 10 µM.
Regarding `COc1ncc(-c2cnc3[nH]cc(C(=O)c4cccc(NS(=O)(=O)N(C)C5CC5)c4F)c3c2)cn1` [Compound P-0025], in assay [1], the half-maximal inhibitory concentration (IC50) was < 1 µM. In addition, the EC50 in assay [2] was > 10 µM.
Regarding `CCN(C)S(=O)(=O)Nc1cccc(C(=O)c2c[nH]c3ncc(-c4ccc(C)nc4)cc23)c1F` [Compound P-0033], the IC50 in assay [1] is < 1 µM. In assay [2], the EC50 was > 10 µM.
The corresponding values for `CCN(C)S(=O)(=O)Nc1cccc(C(=O)c2c[nH]c3ncc(-c4ccc(F)cc4)cc23)c1F` [Compound P-0034] are > 1 µM and > 10 µM.
The like results for `CN(C)S(=O)(=O)Nc1cccc(C(=O)c2c[nH]c3ncc(-c4ccc(F)cc4)cc23)c1F` [Compound P-0035] were, in that order, > 1 µM and > 10 µM.
As to `CCN(C)S(=O)(=O)Nc1cccc(C(=O)c2c[nH]c3ncc(Br)cc23)c1F` [Compound P-0038, 5-bromo-3-[3-[[ethyl(methyl)sulfamoyl]amino]-2-fluoro-benzoyl]-1H-pyrrolo[2,3-b]pyridine], the IC50 at B-Raf V600E was < 0.1 µM; in assay [1], > 1 µM. The half-maximal effective concentration (EC50) in assay [2] was > 10 µM.
As to `CCN(C)S(=O)(=O)Nc1cccc(C(=O)c2c[nH]c3ncc(C#N)cc23)c1F` [Compound P-0039, 5-cyano-3-[3-[[ethyl(methyl)sulfamoyl]amino]-2-fluoro-benzoyl]-1H-pyrrolo[2,3-b]pyridine], the IC50 in assay [1] is > 1 µM. In assay [2], the EC50 is > 10 µM.
As for `CCCN(C)S(=O)(=O)Nc1cccc(C(=O)c2c[nH]c3ncc(-c4cnc(OC)nc4)cc23)c1F` [Compound P-0040, 3-[2-fluoro-3-[[methyl(propyl)sulfamoyl]amino]benzoyl]-5-(2-methoxypyrimidin-5-yl)-1H-pyrrolo[2,3-b]pyridine], the IC50 was < 0.1 µM against B-Raf V600E and < 1 µM in assay [1]. Also, in assay [2], the EC50 was > 10 µM.
On to `Cn1cc(-c2cnc3[nH]cc(C(=O)c4cccc(NS(=O)(=O)CC5CC5)c4F)c3c2)cn1` [Compound P-0042, 1-cyclopropyl-N-[2-fluoro-3-[5-(1-methylpyrazol-4-yl)-1H-pyrrolo[2,3-b]pyridine-3-carbonyl]phenyl]methanesulfonamide], for which the IC50 in assay [1] is < 1 µM. The EC50 in assay [2] was > 10 µM.
Turning to `O=C(c1cccc(NS(=O)(=O)N2CCCC2)c1F)c1c[nH]c2ncc(-c3cccnc3)cc12` [Compound P-0043, N-[2-fluoro-3-[5-(3-pyridyl)-1H-pyrrolo[2,3-b]pyridine-3-carbonyl]phenyl]pyrrolidine-1-sulfonamide], the IC50 on B-Raf V600E was < 0.1 µM; in assay [1], < 1 µM. Also, in assay [2], the EC50 was > 10 µM.
For the molecule `COc1ncc(-c2cnc3[nH]cc(C(=O)c4cccc(NS(=O)(=O)N5CCCC5)c4F)c3c2)c(OC)n1` [Compound P-0044, N-[3-[5-(2,4-dimethoxypyrimidin-5-yl)-1H-pyrrolo[2,3-b]pyridine-3-carbonyl]-2-fluoro-phenyl]pyrrolidine-1-sulfonamide], the IC50 in assay [1] was < 1 µM. The EC50 in assay [2] was > 10 µM.
Regarding `Cc1ccc(-c2cnc3[nH]cc(C(=O)c4cccc(NS(=O)(=O)N5CCCC5)c4F)c3c2)cn1` [Compound P-0045, N-[2-fluoro-3-[5-(6-methyl-3-pyridyl)-1H-pyrrolo[2,3-b]pyridine-3-carbonyl]phenyl]pyrrolidine-1-sulfonamide], the IC50 was < 0.1 µM at B-Raf V600E and < 1 µM in assay [1]. In addition, the EC50 in assay [2] was > 10 µM.
The like results for `CC(C)c1ncc(-c2cnc3[nH]cc(C(=O)c4cccc(NS(=O)(=O)N5CCCC5)c4F)c3c2)cn1` [Compound P-0047, N-[2-fluoro-3-[5-(2-isopropylpyrimidin-5-yl)-1H-pyrrolo[2,3-b]pyridine-3-carbonyl]phenyl]pyrrolidine-1-sulfonamide] were, in that order, < 0.1 µM, < 1 µM and > 10 µM.
Take `O=C(c1cccc(NS(=O)(=O)N2CCCC2)c1F)c1c[nH]c2ncc(-c3cnc(C4CC4)nc3)cc12` [Compound P-0048, N-[3-[5-(2-cyclopropylpyrimidin-5-yl)-1H-pyrrolo[2,3-b]pyridine-3-carbonyl]-2-fluoro-phenyl]pyrrolidine-1-sulfonamide]: the IC50 on B-Raf V600E was < 0.1 µM; in assay [1], < 1 µM. Moreover, the EC50 in assay [2] was > 10 µM.
For the molecule `COc1cc(-c2cnc3[nH]cc(C(=O)c4cccc(NS(=O)(=O)N5CCCC5)c4F)c3c2)ccc1C#N` [Compound P-0049, N-[3-[5-(4-cyano-3-methoxy-phenyl)-1H-pyrrolo[2,3-b]pyridine-3-carbonyl]-2-fluoro-phenyl]pyrrolidine-1-sulfonamide], the figures for the IC50 (on B-Raf V600E; in assay [1]) were < 0.1 µM and < 1 µM, respectively. For the same molecule, the EC50 in assay [2] was > 4 µM.
The corresponding values for `N#CC1(c2ccc(-c3cnc4[nH]cc(C(=O)c5cccc(NS(=O)(=O)N6CCCC6)c5F)c4c3)cc2)CC1` [Compound P-0050, N-[3-[5-[4-(1-cyanocyclopropyl)phenyl]-1H-pyrrolo[2,3-b]pyridine-3-carbonyl]-2-fluoro-phenyl]pyrrolidine-1-sulfonamide] are < 0.1 µM, < 1 µM and > 10 µM.
Consider `COc1cc(-c2cnc3[nH]cc(C(=O)c4c(F)ccc(NS(=O)(=O)N5CCCC5)c4F)c3c2)ccn1` [Compound P-0287, N-[2,4-difluoro-3-[5-(2-methoxy-4-pyridyl)-1H-pyrrolo[2,3-b]pyridine-3-carbonyl]phenyl]pyrrolidine-1-sulfonamide], for which the IC50 in assay [1] is < 1 µM. Besides, the EC50 in assay [2] was > 4 µM.
For `CCN(C)S(=O)(=O)Nc1ccc(F)c(C(=O)c2c[nH]c3ncc(-c4ccc(C#N)cc4)cc23)c1F` [Compound P-0300, 5-(4-cyanophenyl)-3-[3-[[ethyl(methyl)sulfamoyl]amino]-2,6-difluoro-benzoyl]-1H-pyrrolo[2,3-b]pyridine], the IC50 at B-Raf V600E is < 0.1 µM. In addition, the EC50 in assay [2] was > 4 µM.
The like results for `NS(=O)(=O)Nc1ccc(F)c(C(=O)c2c[nH]c3ncc(-c4cnc(C5CC5)nc4)cc23)c1F` [Compound P-0336, 5-(2-cyclopropylpyrimidin-5-yl)-3-[2,6-difluoro-3-(sulfamoylamino)benzoyl]-1H-pyrrolo[2,3-b]pyridine] were, in that order, > 0.1 µM and > 4 µM.
